Patent US20090275594A1, “3-HYDRAZONE PIPERAZINYL RIFAMYCIN DERIVATIVES USEFUL AS ANTIMICROBIAL AGENTS” (priority 2008, published 2009)
Values after ≈ are worked out from the molar mass of the structure shown.

What was measured:
Assay type in all cases: cell-based
Conditions in all cases: cation adjusted Mueller-Hinton broth, 35° C., 16-20 hours
[1] = test system: Enterococcus faecium OC 3312 vancomycin-resistant; assay: In vitro antibacterial activity, microdilution broth MIC (NCCLS M7-A4), strain A
Method: (§1) Minimum inhibitory concentration (MIC) is an indicator of in vitro antibacterial activity. […] The in vitro antimicrobial activity of representative compounds of the present invention was determined by the microdilution broth method following the test method from the National Committee for Clinical Laboratory Standards (NCCLS). This method is described in the NCCLS Document M7-A4, Vol. 17, No. 2, “Methods for Dilution Antimicrobial Susceptibility Test for Bacteria that Grow Aerobically—Fourth Edition”, which is incorporated herein by reference.
(§2) In this method two-fold serial dilutions of drug in cation adjusted Mueller-Hinton broth were added to wells in microdilution trays. The test organisms were prepared by adjusting the turbidity of actively growing broth cultures so that the final concentration of test organism after it is added to the wells was approximately 5×10^4 CFU/well. Following inoculation of the microdilution trays, the trays were incubated at 35° C. for 16-20 hours and then read. The amount of growth in the wells containing the test compound was compared with the amount of growth in the growth-control wells (no test compound) used in each tray.

[2] = test system: Staphylococcus aureus ATCC 29213; assay: In vitro antibacterial activity, microdilution broth MIC (NCCLS M7-A4), strain B
Method: as §1, §2

[3] = test system: Methicillin-resistant Staphylococcus aureus OC 3726 COL; assay: In vitro antibacterial activity, microdilution broth MIC (NCCLS M7-A4), strain C
Method: as §1, §2

[4] = test system: Staphylococcus aureus OC4172; assay: In vitro antibacterial activity, microdilution broth MIC (NCCLS M7-A4), strain D
Method: as §1, §2

Compound	MIC (μg/mL) A Strain [1] [µg/mL]	MIC (μg/mL) B Strain [2] [µg/mL]	MIC (μg/mL) C Strain [3]	MIC (μg/mL) D Strain [4] [µg/mL]
COC1C=COC2(C)Oc3c(C)c(O)c4c(O)c(c(C=NN5CCN(Cc6ccc(-c7ccccc7)s6)CC5)c(O)c4c3C2=O)NC(=O)C(C)=CC=CC(C)C(O)C(C)C(O)C(C)C(OC(C)=O)C1C (centres unmarked) [Compound 20]	2 (≈ 2.04 µM)	2 (≈ 2.04 µM)	1 µg/mL (≈ 1.02 µM)	2 (≈ 2.04 µM)
COC1C=COC2(C)Oc3c(C)c(O)c4c(O)c(c(C=NN5CCN(Cc6ccc(-c7ccc(Cl)cc7)s6)CC5)c(O)c4c3C2=O)NC(=O)C(C)=CC=CC(C)C(O)C(C)C(O)C(C)C(OC(C)=O)C1C (centres unmarked) [Compound 21]	2 (≈ 1.97 µM)	2 (≈ 1.97 µM)	2 µg/mL (≈ 1.97 µM)	2 (≈ 1.97 µM)
COC1C=COC2(C)Oc3c(C)c(O)c4c(O)c(c(C=NN5CCN(Cc6ccc(-c7ccccc7Cl)o6)CC5)c(O)c4c3C2=O)NC(=O)C(C)=CC=CC(C)C(O)C(C)C(O)C(C)C(OC(C)=O)C1C (centres unmarked) [Compound 22]	0.5 (≈ 0.5 µM)	0.5 (≈ 0.5 µM)	0.5 µg/mL (≈ 0.5 µM)	0.25 (≈ 0.25 µM)
COC1C=COC2(C)Oc3c(C)c(O)c4c(O)c(c(C=NN5CCN(Cc6ccc(-c7ccc(Cl)cc7)o6)CC5)c(O)c4c3C2=O)NC(=O)C(C)=CC=CC(C)C(O)C(C)C(O)C(C)C(OC(C)=O)C1C (centres unmarked) [Compound 23]	0.5 (≈ 0.5 µM)	0.25 (≈ 0.25 µM)	0.25 µg/mL (≈ 0.25 µM)	0.25 (≈ 0.25 µM)
COC1C=COC2(C)Oc3c(C)c(O)c4c(O)c(c(C=NN5CCN(Cc6cn(-c7ccc(Cl)cc7)nn6)CC5)c(O)c4c3C2=O)NC(=O)C(C)=CC=CC(C)C(O)C(C)C(O)C(C)C(OC(C)=O)C1C (centres unmarked) [Compound 24]	0.12 (≈ 0.12 µM)	0.12 (≈ 0.12 µM)	≦0.12 μg/mL	0.06 (≈ 0.06 µM)
COC1C=COC2(C)Oc3c(C)c(O)c4c(O)c(c(C=NN5CCN(Cc6noc(-c7ccc(Cl)cc7)n6)CC5)c(O)c4c3C2=O)NC(=O)C(C)=CC=CC(C)C(O)C(C)C(O)C(C)C(OC(C)=O)C1C (centres unmarked) [Compound 25]	0.5 (≈ 0.499 µM)	0.5 (≈ 0.499 µM)	0.25 µg/mL (≈ 0.25 µM)	0.25 (≈ 0.25 µM)
COC1C=COC2(C)Oc3c(C)c(O)c4c(O)c(c(C=NN5CCN(CCc6cc(-c7ccc(Cl)cc7)no6)CC5)c(O)c4c3C2=O)NC(=O)C(C)=CC=CC(C)C(O)C(C)C(O)C(C)C(OC(C)=O)C1C (centres unmarked) [Compound 26]	0.5 (≈ 0.493 µM)	0.5 (≈ 0.493 µM)	0.25 µg/mL (≈ 0.246 µM)	0.25 (≈ 0.246 µM)
COC1C=COC2(C)Oc3c(C)c(O)c4c(O)c(c(C=NN5CCN(CCCc6cc(-c7ccccc7)no6)CC5)c(O)c4c3C2=O)NC(=O)C(C)=CC=CC(C)C(O)C(C)C(O)C(C)C(OC(C)=O)C1C (centres unmarked) [Compound 27]	0.5 (≈ 0.503 µM)	0.5 (≈ 0.503 µM)	0.5 µg/mL (≈ 0.503 µM)	0.5 (≈ 0.503 µM)
